{
  "source": "ChEMBL document CHEMBL5120912",
  "about": "“Structure Revision of Trichomide D by Total Synthesis” (J Nat Prod, 2022)",
  "assay_type_in_all_cases": "functional, cell-based",
  "key": {"MCF7 [1]": {"tested_on": "MCF7", "assay": "Cytotoxicity against human MCF7 cells assessed as inhibition of cell growth incubated for 72 hrs by MTT assay", "settings": "MCF7, 72 h"}, "MCF7 [2]": {"tested_on": "MCF7", "assay": "Cytotoxicity against human MCF7 cells assessed as inhibition of cell growth incubated for 24 hrs by MTT assay", "settings": "MCF7, 24 h"}, "SW480": {"tested_on": "SW480", "assay": "Cytotoxicity against human SW480 cells assessed as inhibition of cell growth incubated for 24 hrs by MTT assay", "settings": "SW480, 24 h"}, "HeLa S3": {"tested_on": "HeLa S3", "assay": "Cytotoxicity against human HeLa S3 cells assessed as inhibition of cell growth incubated for 72 hrs by MTT assay", "settings": "HeLa S3, 72 h"}, "HL-60": {"tested_on": "HL-60", "assay": "Cytotoxicity against human HL-60 cells assessed as inhibition of cell growth incubated for 24 hrs by MTT assay", "settings": "HL-60, 24 h"}},
  "data": [
    {"smiles": "CC[C@H](C)[C@@H]1NC(=O)[C@@H]2[C@@H](C)CCN2C(=O)[C@@H](C[C@@H](O)CCl)OC(=O)CCNC(=O)[C@H](C)N(C)C(=O)[C@H]([C@@H](C)CC)N(C)C1=O", "values": [
      {"measurement": "IC50", "setting": "MCF7 [1]", "result": 2800, "unit": "nM"},
      {"measurement": "IC50", "setting": "MCF7 [2]", "result": 79, "unit": "nM"},
      {"measurement": "IC50", "setting": "SW480", "result": 107, "unit": "nM"},
      {"measurement": "IC50", "setting": "HeLa S3", "result": 400, "unit": "nM"},
      {"measurement": "IC50", "setting": "HL-60", "result": 149, "unit": "nM"}
    ]},
    {"smiles": "CC[C@H](C)[C@@H]1NC(=O)[C@@H]2[C@@H](C)CCN2C(=O)[C@@H](C[C@H](O)CCl)OC(=O)CCNC(=O)[C@H](C)N(C)C(=O)[C@H]([C@@H](C)CC)N(C)C1=O", "values": [
      {"measurement": "IC50", "setting": "MCF7 [1]", "result": 340, "unit": "nM"},
      {"measurement": "IC50", "setting": "HeLa S3", "result": 31, "unit": "nM"}
    ]},
    {"smiles": "CC[C@H](C)[C@@H]1NC(=O)[C@@H]2[C@@H](C)CCN2C(=O)[C@@H](C[C@H](O)CO)OC(=O)CCNC(=O)[C@H](C)N(C)C(=O)[C@H]([C@@H](C)CC)N(C)C1=O", "values": [
      {"measurement": "IC50", "setting": "MCF7 [1]", "result": "> 10000", "unit": "nM"},
      {"measurement": "IC50", "setting": "HeLa S3", "result": "> 10000", "unit": "nM"}
    ]},
    {"smiles": "CO[C@@]12[C@H](COC(N)=O)C3=C(C(=O)C(C)=C(N)C3=O)N1C[C@@H]1N[C@@H]12", "note": "[MITOMYCIN]", "values": [
      {"measurement": "IC50", "setting": "MCF7 [1]", "result": 1800, "unit": "nM"},
      {"measurement": "IC50", "setting": "HeLa S3", "result": 520, "unit": "nM"}
    ]}
  ]
}
